This assay addresses T1, human GLP-1 receptor (Homo sapiens, UniProt P43220).
T1 construct: expressed in transfected cells
Briefly: GLP-1R cAMP Assay. The assay is classed as cell-based. The following applies: cAMP accumulation in CHO cells stably overexpressing the human GLP-1 receptor; 30 min treatment; HitHunter cAMP kit; read-out: EC50. An outline of the steps:
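CHO cells stably overexpressing human GLP-1R, 10,000 cells/well, treated with compound in 20-point dose response in triplicate for 30 min. cAMP accumulation read by enzyme-complementation luminescence after lysis and overnight incubation; dose-response curves fitted.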
T1 sequence (P43220 24-463): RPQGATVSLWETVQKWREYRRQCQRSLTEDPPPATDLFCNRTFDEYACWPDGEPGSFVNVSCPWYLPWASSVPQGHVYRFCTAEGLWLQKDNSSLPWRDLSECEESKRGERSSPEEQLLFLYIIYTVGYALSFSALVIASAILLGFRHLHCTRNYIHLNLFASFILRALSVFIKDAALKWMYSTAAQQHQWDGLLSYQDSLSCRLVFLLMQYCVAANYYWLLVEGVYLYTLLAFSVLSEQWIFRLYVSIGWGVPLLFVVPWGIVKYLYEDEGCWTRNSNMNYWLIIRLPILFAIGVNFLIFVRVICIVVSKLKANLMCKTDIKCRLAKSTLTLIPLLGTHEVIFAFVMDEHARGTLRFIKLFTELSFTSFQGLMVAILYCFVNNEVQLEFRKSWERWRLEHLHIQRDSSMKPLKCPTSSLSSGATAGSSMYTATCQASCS
Consider `CCn1cncc1Cn1c(CN2CCC(Oc3ccnc(COc4ccc(C#N)cc4F)c3)CC2)nc2ccc(C(=O)O)cc21` [Compound 275, 2-{[4-({2-[(4-cyano-2-fluorophenoxy)methyl]pyridin-4-yl}oxy)piperidin-1-yl]methyl}-1-[(1-ethyl-1H-imidazol-5-yl)methyl]-1H-1,3-benzodiazole-6-carboxylic acid], for which the EC50 (in general, the concentration at which the effect is half-maximal) was < 50 nM.
For `N#Cc1ccc(OCc2cc(OC3CCN(Cc4nc5ccc(C(=O)O)cc5n4C[C@@H]4CCO4)CC3)ccn2)c(F)c1` [Compound 277, 2-{[4-({2-[(4-cyano-2-fluorophenoxy)methyl]pyridin-4-yl}oxy)piperidin-1-yl]methyl}-1-{[(2S)-oxetan-2-yl]methyl}-1H-1,3-benzodiazole-6-carboxylic acid], the EC50 is < 50 nM.
The same measure for `CCn1cncc1Cn1c(CN2CC[C@@H](Cc3cnc(COc4ccc(Cl)cc4Cl)o3)C[C@@H]2C)nc2ccc(C(=O)O)cc21` [Compound 278, 2-{[(2S,4R)-4-({2-[(2,4-dichlorophenoxy)methyl]-1,3-oxazol-5-yl}methyl)-2-methylpiperidin-1-yl]methyl}-1-[(1-ethyl-1H-imidazol-5-yl)methyl]-1H-1,3-benzodiazole-6-carboxylic acid]: < 50 nM; for `CCn1cncc1Cn1c(CN2CC[C@H](Cc3cnc(COc4ccc(Cl)cc4Cl)o3)C[C@@H]2C)nc2ccc(C(=O)O)cc21` [Compound 279, 2-{[(2S,4S)-4-({2-[(2,4-dichlorophenoxy)methyl]-1,3-oxazol-5-yl}methyl)-2-methylpiperidin-1-yl]methyl}-1-[(1-ethyl-1H-imidazol-5-yl)methyl]-1H-1,3-benzodiazole-6-carboxylic acid]: < 50 nM.
With `O=C(O)c1ccc2nc(CN3CCC(Oc4ccnc(COc5ccc(Cl)cc5Cl)c4)CC3)n(CC3CNC3)c2c1` [Compound 280, 1-[(azetidin-3-yl)methyl]-2-{[4-({2-[(2,4-dichlorophenoxy)methyl]pyridin-4-yl}oxy)piperidin-1-yl]methyl}-1H-1,3-benzodiazole-6-carboxylic acid] the figure was < 50 nM; with `C[C@H]1C[C@@H](Oc2ccnc(COc3ccc(Cl)cc3Cl)c2)CCN1Cc1nc2ccc(C(=O)O)cc2n1C[C@@H]1CCO1` [Compound 283, 2-{[(2S,4S)-4-({2-[(2,4-dichlorophenoxy)methyl]pyridin-4-yl}oxy)-2-methylpiperidin-1-yl]methyl}-1-{[(2S)-oxetan-2-yl]methyl}-1H-1,3-benzodiazole-6-carboxylic acid], < 50 nM; with `O=C(O)c1ccc2nc(CN3CCC(Oc4ccccc4COc4ccc(Cl)cc4Cl)CC3)n(C[C@@H]3CCO3)c2c1` [Compound 284, 2-[(4-{2-[(2,4-dichlorophenoxy)methyl]phenoxy}piperidin-1-yl)methyl]-1-{[(2S)-oxetan-2-yl]methyl}-1H-1,3-benzodiazole-6-carboxylic acid], > 500 nM.
With `O=C(O)c1ccc2nc(CN3CCC(Oc4cccnc4COc4ccc(Cl)cc4Cl)CC3)n(C[C@@H]3CCO3)c2c1` [Compound 286, 2-{[4-({2-[(2,4-dichlorophenoxy)methyl]pyridin-3-yl}oxy)piperidin-1-yl]methyl}-1-{[(2S)-oxetan-2-yl]methyl}-1H-1,3-benzodiazole-6-carboxylic acid] the figure was > 500 nM; with `CCn1cncc1Cn1c(CN2CCC(Oc3ccnc(COc4ccc(Cl)cc4CO)c3)CC2)nc2ccc(C(=O)O)cc21` [Compound 287, 2-({4-[(2-{[4-chloro-2-(hydroxymethyl)phenoxy]methyl}pyridin-4-yl)oxy]piperidin-1-yl}methyl)-1-[(1-ethyl-1H-imidazol-5-yl)methyl]-1H-1,3-benzodiazole-6-carboxylic acid], < 50 nM; with `O=C(O)c1ccc2nc(CN3CCC(Oc4cccc(COc5ncc(Cl)cc5F)c4)CC3)n(C[C@@H]3CCO3)c2c1` [Compound 288, 2-{[4-(3-{[(5-chloro-3-fluoropyridin-2-yl)oxy]methyl}phenoxy)piperidin-1-yl]methyl}-1-{[(2S)-oxetan-2-yl]methyl}-1H-1,3-benzodiazole-6-carboxylic acid], > 500 nM.
`C[C@H]1C[C@H](Oc2cccc(COc3ccc(Cl)cc3F)n2)CCN1Cc1nc2ccc(C(=O)O)cc2n1C[C@@H]1CCO1` [Compound 290, 2-{[(2S,4R)-4-({6-[(4-chloro-2-fluorophenoxy)methyl]pyridin-2-yl}oxy)-2-methylpiperidin-1-yl]methyl}-1-{[(2S)-oxetan-2-yl]methyl}-1H-1,3-benzodiazole-6-carboxylic acid]: the EC50 was < 50 nM.
With `C[C@H]1C[C@@H](Oc2cccc(COc3ccc(Cl)cc3F)n2)CCN1Cc1nc2ccc(C(=O)O)cc2n1C[C@@H]1CCO1` [Compound 291, 2-{[(2S,4S)-4-({6-[(4-chloro-2-fluorophenoxy)methyl]pyridin-2-yl}oxy)-2-methylpiperidin-1-yl]methyl}-1-{[(2S)-oxetan-2-yl]methyl}-1H-1,3-benzodiazole-6-carboxylic acid] the figure was < 50 nM.
The same measure for `O=C(O)c1ccc2nc(CN3CCC(Oc4ccnc(COc5ccc(Cl)cc5CO)c4)CC3)n(CC3CCO3)c2c1` (centres unmarked) [Compound 292, 2-({4-[(2-{[4-chloro-2-(hydroxymethyl)phenoxy]methyl}pyridin-4-yl)oxy]piperidin-1-yl}methyl)-1-[(oxetan-2-yl)methyl]-1H-1,3-benzodiazole-6-carboxylic acid]: < 50 nM.
Take `CCn1cncc1Cn1c(CN2CCC(Oc3cccc(COc4ncc(Cl)cc4F)c3)CC2)nc2ccc(C(=O)O)cc21` [Compound 294]: the EC50 lay in the range of 50 to 500 nM.
With `C[C@H]1C[C@H](Oc2ccnc(COc3ccc(Cl)cc3Cl)c2)CCN1Cc1nc2ccc(C(=O)O)cc2n1C[C@@H]1CCO1` [Compound 295, 2-{[(2S,4R)-4-({2-[(2,4-dichlorophenoxy)methyl]pyridin-4-yl}oxy)-2-methylpiperidin-1-yl]methyl}-1-{[(2S)-oxetan-2-yl]methyl}-1H-1,3-benzodiazole-6-carboxylic acid] the figure was < 50 nM; with `O=C(O)c1ccc2nc(CN3CCC(Oc4ccnc(COc5ccc(Cl)cc5F)n4)CC3)n(C[C@@H]3CCO3)c2c1` [Compound 296, 2-{[4-({2-[(4-chloro-2-fluorophenoxy)methyl]pyrimidin-4-yl}oxy)piperidin-1-yl]methyl}-1-{[(2S)-oxetan-2-yl]methyl}-1H-1,3-benzodiazole-6-carboxylic acid], < 50 nM; with `O=C(O)c1ccc2nc(CN3CCC(Oc4cccc(COc5ccc(C(F)F)cc5F)c4)CC3)n(C[C@@H]3CCO3)c2c1` [Compound 301], < 50 nM.
With `O=C(O)c1cc(F)c2nc(CN3CCC(Oc4ccnc(COc5ccc(C(F)F)cc5F)c4)CC3)n(C[C@@H]3CCO3)c2c1` [Compound 302] the figure was < 50 nM; with `O=C(O)c1cc(F)c2nc(CN3CCC(Oc4cccc(COc5ccc(C(F)F)cc5F)c4)CC3)n(CC3(CF)CC3)c2c1` [Compound 303], < 50 nM; with `O=C(O)c1cc(F)c2nc(CN3CCC(Oc4ccnc(COc5ccc(Cl)cc5Cl)n4)CC3)n(C[C@@H]3CCO3)c2c1` [Compound 305], < 50 nM.
With `N#Cc1cc(F)ccc1OCc1nccc(OC2CCN(Cc3nc4ccc(C(=O)O)cc4n3C[C@@H]3CCO3)CC2)n1` [Compound 306] the figure was < 50 nM; with `N#Cc1cc(F)ccc1OCc1nccc(OC2CCN(Cc3nc4c(F)cc(C(=O)O)cc4n3C[C@@H]3CCO3)CC2)n1` [Compound 307], < 50 nM.
In the case of `O=C(O)c1ccc2nc(CN3CCC(Oc4ccnc(COc5ncc(Cl)cc5F)c4)CC3)n(C[C@@H]3CCO3)c2c1` [Compound 308], the EC50 is < 50 nM.
The same measure for `N#Cc1ccc(OCc2cccc(OC3CCN(Cc4nc5c(F)cc(C(=O)O)cc5n4C[C@@H]4CCO4)CC3)c2)c(F)c1` [Compound 309]: < 50 nM.
With `O=C(O)c1cc(F)c2nc(CN3CCC(Oc4cccc(COc5ccc(C(F)F)cc5F)c4)CC3)n(C[C@@H]3CCO3)c2c1` [Compound 310] the figure was < 50 nM; with `O=C(O)c1ccc2nc(CN3CCC(Oc4ccnc(COc5ccc(C(F)F)cc5F)n4)CC3)n(C[C@@H]3CCO3)c2c1` [Compound 311], < 50 nM; with `O=C(O)c1cc(F)c2nc(CN3CCC(Oc4ccnc(COc5ccc(C(F)F)cc5F)n4)CC3)n(C[C@@H]3CCO3)c2c1` [Compound 312, 2-({4-[(2-{[4-(difluoromethyl)-2-fluorophenoxy]methyl}pyrimidin-4-yl)oxy]piperidin;-1-yl}methyl)-1-{[(2S)-oxetan-2-yl]methyl}-1H-1,3-benzodiazole-6-carboxylic acid], < 50 nM.
The same measure for `N#Cc1ccc(OCc2nccc(OC3CCN(Cc4nc5c(F)cc(C(=O)O)cc5n4CC4(CF)CC4)CC3)n2)c(F)c1` [Compound 314]: < 50 nM.
Regarding `O=C(O)c1cc(F)c2nc(CN3CCC(Oc4ccnc(COc5ccc(Cl)cc5F)n4)CC3)n(C[C@@H]3CCO3)c2c1` [Compound 315], the EC50 was < 50 nM.
With `CCn1cnnc1Cn1c(CN2CCC(Oc3ccnc(COc4ccc(Cl)cc4F)c3)CC2)nc2ccc(C(=O)O)cc21` [Compound 316] the figure was < 50 nM.
Take `N#Cc1cc(F)ccc1OCc1cccc(OC2CCN(Cc3nc4c(F)cc(C(=O)O)cc4n3C[C@@H]3CCO3)CC2)c1` [Compound 317]: the EC50 is < 50 nM.
The same measure for `C[C@H]1C[C@@H](Oc2cccc(COc3ccc(C#N)cc3F)c2)CCN1Cc1nc2ccc(C(=O)O)cc2n1C[C@@H]1CCO1` [Compound 319]: < 50 nM; for `C[C@H]1C[C@@H](Oc2cccc(COc3ccc(C#N)cc3F)c2)CCN1Cc1nc2c(F)cc(C(=O)O)cc2n1C[C@@H]1CCO1` [Compound 320]: < 50 nM.
The same measure for `O=C(O)c1ccc2nc(CN3CCC(Oc4ccnc(COc5ccc(Cl)cc5F)c4)CC3)n(CC3(CF)CC3)c2c1` [Compound 321]: < 50 nM; for `O=C(O)c1ccc2nc(CN3CCC(Oc4ccnc(COc5ccc(F)cc5C(F)(F)F)c4)CC3)n(C[C@@H]3CCO3)c2c1` [Compound 322]: < 50 nM.

Source of the values: patent US20230089073A1 (Carmot Therapeutics, Inc., priority 2021, published 2023).
